Read-outs that look alike come from different tables or passages of the source.
Key:
Assay type in all cases: cell-based
M1 muscarinic receptor = target: T1, M1 muscarinic receptor (Homo sapiens, UniProt P11229); assay: Receptor Selection and Amplification (R-SAT) assay, cloned M1 receptor; set-up: M1 Eff: scale not given here; settings: for Emax: read-out: m1 % Efficacy
T1 construct: expressed in transfected cells
T1 sequence (P11229 1-460): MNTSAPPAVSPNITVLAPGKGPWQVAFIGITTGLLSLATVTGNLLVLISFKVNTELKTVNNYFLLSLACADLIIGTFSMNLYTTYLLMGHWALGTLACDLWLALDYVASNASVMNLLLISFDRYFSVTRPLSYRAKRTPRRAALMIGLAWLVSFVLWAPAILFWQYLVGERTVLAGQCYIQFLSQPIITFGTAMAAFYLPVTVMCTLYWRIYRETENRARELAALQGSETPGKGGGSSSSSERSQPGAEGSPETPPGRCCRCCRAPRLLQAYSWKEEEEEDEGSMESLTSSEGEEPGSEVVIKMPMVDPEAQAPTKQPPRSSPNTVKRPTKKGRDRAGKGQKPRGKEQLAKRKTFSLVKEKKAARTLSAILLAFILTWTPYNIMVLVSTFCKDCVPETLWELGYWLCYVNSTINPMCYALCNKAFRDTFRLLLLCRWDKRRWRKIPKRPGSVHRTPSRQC
Text: (§1) The EC50 for an agonist is intended to denote the concentration of a compound needed to achieve 50% of a maximal response seen in an in vitro assay such as R-SAT. For inverse agonists, EC50 is intended to denote the concentration of a compound needed to achieve 50% inhibition of an R-SAT response from basal, no compound, levels.
(§2) A particularly convenient functional assay system is the receptor selection and amplification assay (R-SAT assay) in U.S. Pat. No. 5,707,798, which describes a method of screening for bioactive compounds by utilizing the ability of cells transfected with receptor DNA, e.g., coding for the different muscarinic subtypes, to amplify in the presence of a ligand of the receptor. Cell amplification is detected as increased levels of a marker also expressed by the cells.
(§3) Receptor Selection and Amplification (R-SAT) assays were carried out using the cloned M1-M5 receptors essentially as described in: Brauner-Osborne H, Brann M R. Pharmacology of muscarinic acetylcholine receptor subtypes (m1-m5): high throughput assays in mammalian cells. Eur J Pharmacol Jan. 4, 1996;295(1):93-102, and Spalding T A, Trotter C, Skjaerbaek N, Messier T L, Currier E A, Burstein E S, Li D, Hacksell U, Brann M R. Discovery of an ectopic activation site on the M(1) muscarinic receptor. Mol Pharmacol. 2002 June;61(6):1297-302.

M2 muscarinic receptor = target: T2, M2 muscarinic receptor (Homo sapiens, UniProt P08172); assay: Receptor Selection and Amplification (R-SAT) assay, cloned M2 receptor; set-up: M2 Eff: scale not given here
T2 construct: expressed in transfected cells
T2 sequence (P08172 1-466): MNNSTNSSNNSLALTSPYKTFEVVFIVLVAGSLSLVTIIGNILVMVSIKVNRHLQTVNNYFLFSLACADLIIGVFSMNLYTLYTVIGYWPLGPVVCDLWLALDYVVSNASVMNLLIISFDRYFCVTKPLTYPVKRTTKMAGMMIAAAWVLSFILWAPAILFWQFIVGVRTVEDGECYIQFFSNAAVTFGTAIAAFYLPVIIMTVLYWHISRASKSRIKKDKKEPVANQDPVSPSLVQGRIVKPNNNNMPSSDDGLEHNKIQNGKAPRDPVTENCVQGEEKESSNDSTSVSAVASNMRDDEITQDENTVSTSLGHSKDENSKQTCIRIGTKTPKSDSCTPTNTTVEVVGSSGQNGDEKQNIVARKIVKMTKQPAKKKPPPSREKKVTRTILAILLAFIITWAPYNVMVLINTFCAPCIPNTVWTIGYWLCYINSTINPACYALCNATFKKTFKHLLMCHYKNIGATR
Text: as §1, §2, §3

M4 muscarinic receptor = target: T3, M4 muscarinic receptor (Homo sapiens, UniProt P08173); assay: Receptor Selection and Amplification (R-SAT) assay, cloned M4 receptor; settings: R-SAT, cloned m4 receptor
T3 construct: expressed in transfected cells
T3 sequence (P08173 1-479): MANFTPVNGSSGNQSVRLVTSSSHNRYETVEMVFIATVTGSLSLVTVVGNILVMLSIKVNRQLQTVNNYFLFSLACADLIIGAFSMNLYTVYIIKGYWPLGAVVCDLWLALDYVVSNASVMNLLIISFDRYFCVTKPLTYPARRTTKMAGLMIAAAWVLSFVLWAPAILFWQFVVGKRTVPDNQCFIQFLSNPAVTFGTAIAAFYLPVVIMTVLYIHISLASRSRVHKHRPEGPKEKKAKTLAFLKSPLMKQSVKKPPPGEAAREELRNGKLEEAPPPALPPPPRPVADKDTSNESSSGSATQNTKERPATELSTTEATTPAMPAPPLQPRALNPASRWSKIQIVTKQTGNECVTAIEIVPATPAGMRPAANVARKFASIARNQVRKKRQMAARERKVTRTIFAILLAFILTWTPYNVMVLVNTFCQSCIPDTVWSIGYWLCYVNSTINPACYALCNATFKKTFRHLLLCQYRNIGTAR
Text: as §1, §2, §3

[1] = M1 pEC50, R-SAT, second table (COMPOUND ID series)
[2] = R-SAT, second table (COMPOUND ID series)
[3] = M2 pEC50, R-SAT, second table (COMPOUND ID series)
[4] = R-SAT, second table (COMPOUND ID series), read-out: M1 pEC50 (converted)
[5] = R-SAT, second table (COMPOUND ID series), read-out: M2 pEC50 (converted)

Structure (SMILES)	EC50 (M1 muscarinic receptor; [1]) [nM]	M1 Eff (M1 muscarinic receptor; [2])	EC50 (M2 muscarinic receptor; [3]) [nM]	M2 Eff (M2 muscarinic receptor; [2])	also measured
CCOCCC1CC2CCC(C1)N2CC(C)CN1C(=O)COc2ccccc21 (single isomer, unassigned) [Compound 00262998]	7.94	102	398	56	–
O=C1COc2cc(F)ccc2N1CCCN1CCC(OCC2CC2)CC1 [Compound 00262469, 4-[3-(4-Cyclopropylmethoxypiperidin-1-yl)propyl]-7-fluoro-4H-benzo[1,4]oxazin-3-one]	–	98	–	73	EC50 (M1 muscarinic receptor; [4]): 63.1 nM; EC50 (M2 muscarinic receptor; [5]): 501 nM
COCCC1CC2CCC(C1)N2CC(C)CN1C(=O)COc2ccccc21 [Compound 00263025, (R)-4-{3-[3a-(2-Methoxyethyl)-8-azabicyclo[3.2.1]oct-8-yl]-2-methylpropyl}-4H-benzo[1.4]oxazin-3-one]	3.16	116	158	123	–
CCCCC1CCN(CCCN2c3cc(F)ccc3CCC2C)CC1 (stereo not drawn) [Compound 77LH02-1917, 1-[3-(4-Butyl-piperidin-1-yl)-propyl]-7-fluoro-2-methyl-1,2,3,4-tetrahydro-quinoline]	–	–	–	–	Emax (M1 muscarinic receptor; R-SAT, cloned m1 receptor): 55%; EC50 (M1 muscarinic receptor; R-SAT, cloned m1 receptor, read-out: m1 pEC50 (converted)): 200 nM; Emax (M4 muscarinic receptor; read-out: m4 % Efficacy): 37%; EC50 (M4 muscarinic receptor; read-out: m4 pEC50 (converted)): > 3.16 µM
O=C1COc2cc(F)ccc2N1CCCN1[C@@H]2CC[C@H]1C[C@@H](OCC1CC1)C2 [Compound 00262571, 4-[3-(3a-Cyclopropylmethoxy-8-azabicyclo[3.2.1]oct-8-yl)propyl]-7-fluoro-4H-benzo[1.4]oxazin-3-one]	12.6	81	39.8	45	–
O=C1CCc2cc(F)c(F)cc2N1CCCN1[C@@H]2CC[C@H]1C[C@@H](OCC1CC1)C2 [Compound 00262572, 1-[3-(3a-Cyclopropylmethoxy-8-aza-bicyclo[3.2.1]oct-8-yl)propyl]-6,7-difluoro-3,4-dihydro-1H-quinolin-2-one]	10	82	200	31	–
O=C1COc2ccc(F)cc2N1CCCN1CCC(OCC2CC2)CC1 [Compound 00262635, 4-[3-(4-Cyclopropylmethoxypiperidin-1-yl)propyl]-6-fluoro-4H-benzo[1.4]oxazin-3-one]	–	96	–	53	EC50 (M1 muscarinic receptor; [4]): 63.1 nM; EC50 (M2 muscarinic receptor; [5]): 794 nM
O=C1COc2cc(F)c(F)cc2N1CCCN1[C@@H]2CC[C@H]1C[C@@H](OCC1CC1)C2 [Compound 00262569, 4-[3-(3a-Cyclopropylmethoxy-8-azabicyclo[3.2.1]oct-8-yl)propyl]-6.7-difluoro-4H-benzo[1.4]oxazin-3-one]	6.31	97	50.1	42	–
CCCC=C1CC2CCC(C1)N2CCCN1C(=O)COc2ccccc21 [Compound 81MF24, 4-[3-(3-Butylidene-8-aza-bicyclo[3.2.1]oct-8-yl)-propyl]-4H-benzo[1,4]oxazin-3-one]	–	–	–	–	EC50 (M1 muscarinic receptor; m1 pEC50, R-SAT, cloned m1 receptor): 15.8 nM; Emax (M1 muscarinic receptor): 96%; EC50 (M2 muscarinic receptor; m2 pEC50, R-SAT, cloned m2 receptor): 100 nM; Emax (M2 muscarinic receptor; read-out: m2 % Efficacy): 70%
